Measured values: patent US20180110824A1, “Macrocyclic Modulators of the Ghrelin Receptor” (Ocera Therapeutics, Inc., priority 2016, published 2018)
Read-outs that look alike come from different tables or passages of the source.

Assays:
[1] = test system: gastric emptying in fasted rats; assay: Gastric emptying in fasted rats (phenol red methylcellulose meal); format: in vivo, rat
Description: To examine the effects of compounds of the invention in a model for gastroparesis, compounds were evaluated for possible effects on gastric emptying in fasted rats.
GHRP-6 and test samples were dissolved in vehicle of 9% HPBCD/0.9% NaCl. Immediately following oral administration of methylcellulose (2%) containing phenol red (0.05%) (2 mL/rat), test substances or vehicle (9% HPBCD/0.9% NaCl) were each administered intravenously (i.v.) at a dosing volume of 5 mL/kg.
Male Wistar rats were provided by LASCO (A Charles River Licensee Corporation, Taiwan). Space allocation for 6 animals was 45×23×15 cm. Animals were housed in APEC® cages and maintained in a controlled temperature (22° C.-24° C.) and humidity (60% -80%) environment with 12 h light, 12 h dark cycles for at least one week in the laboratory prior to being used. Free access to standard lab chow for rats (Lab Diet, Rodent Diet, PMI Nutrition International, USA) and tap water was granted. All aspects of this work including housing, experimentation and disposal of animals were performed in general accordance with the Guide for the Care and Use of Laboratory Animals (National Academy Press, Washington, D.C., 1996).
Test substances were each administered intravenously to a group of 5 O/N-fasted Wistar derived male rats weighing 200±20 g immediately after methylcellulose (2%) containing phenol red (0.05%) was administered orally at 2 mL/animal. The animals were then sacrificed 15 minutes later. The stomach was immediately removed, homogenized in 0.1 N NaOH (5 mL) and centrifuged. Following protein precipitation by 20% trichloroacetic acid (0.5 mL)and re-alkalization of the supernatant with 0.1 N NaOH, total phenol red remaining in the stomach was determined by a colorimetric method at 560 nm. A 30 percent or more (≥30%) increase in gastric emptying, detected as the decrease in phenol red concentration in the stomach relative to the vehicle control group, is considered significant.
• 1. Overnight-fasted rats (male Wistar, ˜200 g, N=5/group) were given a meal of methylcellulose (2%) by intragastric gavage. The meal was labeled with phenol red (0.05%). • 2. […] Animals were sacrificed 15 minutes later; the stomach was immediately removed and homogenized in 0.1 N NaOH and centrifuged. • 4. Total phenol red remaining in the stomach was quantified by a colorimetric method at 560 nm. • 5. A >30% increase in gastric emptying, detected based on the phenol red concentration in comparison to the control group, is considered significant.

[2] = target: T1, human growth hormone secretagogue receptor (hGHS-R1a) (Homo sapiens, UniProt Q92847); assay: Competitive radioligand binding assay (ghrelin receptor), [125I]-ghrelin displacement on GHS-R/HEK 293 membranes
T1 construct: purchased PerkinElmer BioSignal #RBHGHSM; host or cells: HEK-293, stably transfected
T1 sequence (Q92847 whole entry): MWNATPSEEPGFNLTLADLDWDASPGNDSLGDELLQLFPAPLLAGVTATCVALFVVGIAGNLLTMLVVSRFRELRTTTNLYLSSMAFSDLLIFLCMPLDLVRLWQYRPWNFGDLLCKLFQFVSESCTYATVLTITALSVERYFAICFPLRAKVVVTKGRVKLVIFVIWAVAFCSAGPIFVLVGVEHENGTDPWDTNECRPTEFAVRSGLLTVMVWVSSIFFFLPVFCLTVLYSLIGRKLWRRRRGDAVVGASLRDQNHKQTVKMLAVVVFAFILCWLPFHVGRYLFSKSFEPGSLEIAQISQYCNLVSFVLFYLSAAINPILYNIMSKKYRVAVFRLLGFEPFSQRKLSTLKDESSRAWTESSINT

[3] = target: T2, human ghrelin receptor (hGHS-R1a) (Homo sapiens, UniProt Q92847); assay: Aequorin functional assay (ghrelin receptor), CHO-K1 cells co-expressing Gα16 and aequorin; format: cell-based; details: Table 4, functional (agonist) activity, TFA salts unless otherwise noted
T2 construct: host or cells: CHO-K1 co-expressing Gα16 and mitochondrially targeted aequorin
T2 sequence (Q92847 whole entry): as above
Description: This cell line is typically constructed by transfection of the human ghrelin receptor into CHO-K1 cells co-expressing Gα16 and the mitochondrially targeted Aequorin (Ref #ES-WT-A5). • 1. […] Assay buffer: DMEM (Dulbecco's Modified Eagles Medium) containing 0.1% BSA (bovine serum albumin; pH 7.0). • 3. Coelenterazine (Molecular Probes, Leiden, The Netherlands). • Final test concentrations (N=8) for compounds of the invention: 10, 1, 0.3, 0.1, 0.03, 0.01, 0.003, 0.001 μM.
Stock solutions of compounds (10 mM in 100% DMSO) were provided frozen on dry ice and stored at −20° C. prior to use. […] Assay plates were then prepared by appropriate dilution in DMEM medium containing 0.1% BSA. Under these conditions, the maximal final DMSO concentration in the assay was <0.6%.
AequoScreen™ cells were collected from culture plates with Ca^2+ and Mg^2+-free phosphate buffered saline (PBS) supplemented with 5 mM EDTA, pelleted for 2 min at 1000×g re-suspended in DMEM—Ham's F12 containing 0.1% BSA at a density of 5×10^6 cells/mL, and incubated O/N at rt in the presence of 5 μM coelenterazine. After loading, cells were diluted with assay buffer to a concentration of 5×10^5 cells/mL.
For agonist testing, 50 μL of the cell suspension was mixed with 50 μL of the appropriate concentration of test compound or ghrelin (reference agonist) in 96-well plates (duplicate samples). Ghrelin (reference agonist) was tested at several concentrations concurrently with the test compounds in order to validate the experiment. The emission of light resulting from receptor activation in response to ghrelin or test compounds was recorded using the Hamamatsu FDSS 6000 reader (Hamamatsu Photonics K.K., Japan).
Results were expressed as Relative Light Units (RLU). […] EC50, Hill slope and % Emax values are reported.
• 1. Assay performed on CHO-K1 cells expressing the transfected, cloned human ghrelin receptor (hGHS-R1a) and Gα16. • 2. Suspended cells incubated O/N with coelenterazine. • 3. Stimulation of hGHS-R1a activates Gα16, causing […] Ca2+ release which ultimately leads to the oxidation of coelenterazine and the emission of a quantitative luminescent signal. • 4. Ghrelin was used as the positive control. • 5.

[4] = Pharmacokinetic analysis in rats (i.v., s.c., p.o.); format: in vivo; details: male, Sprague-Dawley, plasma, iv, 2 mg/kg, rat
Description: • 1. Intravenous (i.v.): 2 mg/kg • 2. Subcutaneous (s.c): 2 mg/kg • 3. Oral (p.o.): 8 mg/kg
Whole blood samples were chilled and immediately processed by centrifugation to obtain plasma.
Plasma samples were stored frozen (−70° C.) until analysis.

[5] = test system: morphine-delayed gastric emptying and gastrointestinal transit in rats; assay: Opioid (morphine)-delayed gastric emptying and gastrointestinal transit in rats; format: in vivo, rat; details: 3 mg/kg, s.c., rats, FIG. 16A
Text: Opioid analgesics, such as morphine, are well known to delay gastrointestinal transit which is an important side-effect for this class of drugs. The clinical term for this syndrome is opioid bowel dysfunction (OBD). Importantly, patients recovering from abdominal surgery experience post-operative ileus that is further exacerbated by concomitant opioid therapy for post-surgical pain.
• 1. Rats (male, Sprague-Dawley, 250-300 g) are implanted with jugular vein catheters to accommodate dosing of test articles. • 2. Overnight-fasted rats are administered morphine (3 mg/kg s.c.). • 3. […] Radioactivity (^99mTc) in each tissue isolate is measured as a means of measuring the transit of the meal.

[6] = target: motilin receptor (Homo sapiens, UniProt O43193); assay: Selectivity for the ghrelin receptor versus the motilin receptor; format: binding
Sequence of motilin receptor (O43193 whole entry, species assumed): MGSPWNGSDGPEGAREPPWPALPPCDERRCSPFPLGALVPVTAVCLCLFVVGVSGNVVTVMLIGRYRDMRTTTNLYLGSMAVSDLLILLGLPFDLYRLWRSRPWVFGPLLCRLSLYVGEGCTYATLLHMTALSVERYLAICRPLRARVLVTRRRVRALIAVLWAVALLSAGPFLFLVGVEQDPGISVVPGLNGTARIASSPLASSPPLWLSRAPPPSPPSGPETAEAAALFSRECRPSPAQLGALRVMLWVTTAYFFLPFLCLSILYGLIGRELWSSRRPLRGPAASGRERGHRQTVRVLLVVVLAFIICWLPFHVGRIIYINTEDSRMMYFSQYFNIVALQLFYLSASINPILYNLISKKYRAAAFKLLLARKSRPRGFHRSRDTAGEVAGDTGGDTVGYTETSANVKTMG
Text: The level of agonist activity and selectivity for representative compounds of the invention are shown below in Table 4.

[7] = Binding activity at the human ghrelin receptor, [125I]-ghrelin displacement, read-out: Ki
[8] = Table 4, TFA salts unless otherwise noted, read-out: Ki

| SMILES | Ki [2, 7] | Ki [2, 8] | EC50 ([3]; read-out: EC50) | Selectivity [6] | other results |
| --- | --- | --- | --- | --- | --- |
| CCN(CC)CCNC(=O)c1cc(Cl)c(N)cc1OC [metoclopramide, Metoclopramide, reference compound] | – | – | – | – | increase in gastric emptying relative to the vehicle control group ([1]; 10 mg/kg i.v., fasted rats): 41%; gastric emptying of a meal in naïve rat ([1]; i.v., FIGS. 14A and 14B): demonstrated significant gastric emptying |
| CCC(C)[C@@H]1NCCOc2ccccc2CCCNC(=O)[C@@H](Cc2ccc(Cl)cc2)NC(=O)[C@@H](C)N(C)C1=O (some centres unmarked) [compound 25] | – | – | – | – | Ki ([2]; Ki (nM), Binding activity at the human ghrelin receptor, [125I]-ghrelin displacement): 0.1 to 10 nM; Ki ([2]; Ki (nM), Table 4, TFA salts unless otherwise noted): 0.1 to 10 nM; EC50 ([3]; EC50 (nM)): 1 to 100 nM; clearance [4]: 67 mL/min/kg; half-life ([4]; read-out: Elimination (t1/2, min)): 31 min; gastric emptying ([1]; 30 μg/kg, fasted rats): demonstrated gastric emptying; increase in gastric emptying relative to the vehicle control group ([1]; 100 μg/kg i.v., fasted rats): 39% |
| CN1CC[C@]23c4c5ccc(O)c4O[C@H]2[C@@H](O)C=C[C@H]3[C@H]1C5 [Morphine, morphine, reference compound] | – | – | – | – | gastric emptying and intestinal transit [5]: significantly delayed gastric emptying and intestinal transit |
| CCC(C)C1NCCOc2ccccc2CCCNC(=O)C(Cc2ccc(F)cc2)NC(=O)C(C)N(C)C1=O (centres unmarked) [compound 26] | 0.1 to 10 nM | 0.1 to 10 nM | 1 to 100 nM | >7700/1 | – |
| C[C@@H]1C(=O)N[C@H](Cc2ccc(F)cc2)C(=O)NCCCc2ccc(F)cc2OCCN[C@@H](C2CC2)C(=O)N1C [compound 372] | – | 0.1 to 10 nM | 1 to 100 nM | 2500/1 | Ki ([2]; Table 3B, binding activity at the human ghrelin receptor, read-out: Ki): 0.1 to 10 nM |
| CCC[C@@H]1NCCOc2ccccc2CCCNC(=O)[C@@H](Cc2ccccc2)NC(=O)CN(C)C1=O [Compound 10] | 10 to 100 nM | 10 to 100 nM | 1 to 100 nM | 304/1 | – |
| CCCC[C@@H]1NCCOc2ccccc2CCCNC(=O)[C@@H](Cc2ccccc2)NC(=O)CN(C)C1=O [Compound 1] | 10 to 100 nM | 10 to 100 nM | 100 to 1000 nM | 142/1 | – |
| CC(C)[C@@H]1NCCOc2ccccc2CCCNC(=O)[C@H](Cc2ccccc2)NC(=O)C2(CCCC2)NC1=O [Compound 9] | 100 to 1000 nM | 100 to 1000 nM | 100 to 1000 nM | 117/1 | – |
| O=C1NC/C=C/c2ccccc2OCCNC2(CCCC2)C(=O)NC2(CCCC2)C(=O)N[C@H]1Cc1ccccc1 [compound 18] | 10 to 100 nM | 10 to 100 nM | 1 to 100 nM | 222/1 | Ki ([2]; Table 3C, read-out: Ki): 10 to 100 nM |
